Measurements taken from PubChem BioAssay (NCI).
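Cultured in 96-well plates, cells were exposed to test compound for 48 hours across five concentrations. TGI marks complete inhibition of growth.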

Assays:
Experiment in all cases: NCI-60 cell line screen, 48 h
[1] = test system: MOLT-4 leukemia
[2] = test system: MDA-N
[3] = test system: OVCAR-8 ovarian
[4] = test system: UACC-257 melanoma
[5] = test system: OVCAR-3 ovarian
[6] = test system: 786-0 renal
[7] = test system: RPMI-8226 leukemia
[8] = test system: HCT-116 colon
[9] = test system: MDA-MB-231 breast
[10] = test system: HS 578T breast
[11] = test system: OVCAR-5 ovarian
[12] = test system: HCC-2998 colon
[13] = test system: DU-145 prostate
[14] = test system: NCI-H460 lung
[15] = test system: U251 CNS
[16] = test system: MDA-MB-435
[17] = test system: MCF7 breast
[18] = test system: K-562 leukemia
[19] = test system: M14 melanoma
[20] = test system: SNB-75 CNS
[21] = test system: HOP-62 NSCLC
[22] = test system: ACHN renal
[23] = test system: SK-MEL-5 melanoma
[24] = test system: TK-10 renal
[25] = test system: NCI-H522 lung
[26] = test system: SNB-19 CNS
[27] = test system: EKVX NSCLC
[28] = test system: KM12 colon
[29] = test system: T-47D breast
[30] = test system: HCT-15 colon
[31] = test system: SK-OV-3 ovarian
[32] = test system: SF-539 CNS
[33] = test system: COLO 205 colon
[34] = test system: BT-549 breast
[35] = test system: CAKI-1 renal
[36] = test system: A498 renal
[37] = test system: SN12C renal
[38] = test system: UO-31 renal
[39] = test system: RXF 393 renal
[40] = test system: NCI-H226 lung
[41] = test system: UACC-62 melanoma
[42] = test system: SF-295 CNS
[43] = test system: CCRF-CEM leukemia
[44] = test system: HT29 colon
[45] = test system: SR leukemia
[46] = test system: SK-MEL-2 melanoma
[47] = test system: NCI-H23 lung
[48] = test system: HL-60(TB) leukemia
[49] = test system: SF-268 CNS
[50] = test system: PC-3 prostate
[51] = test system: MALME-3M melanoma
[52] = test system: HOP-92 NSCLC
[53] = test system: NCI/ADR-RES ovarian
[54] = test system: IGROV1 ovarian
[55] = test system: OVCAR-4 ovarian
[56] = test system: SK-MEL-28 melanoma
[57] = test system: A549 NSCLC
[58] = test system: LOX IMVI melanoma
[59] = test system: SW-620 colon

Measured: TGI

CCOC(=O)C1(Cc2ccccc2)C=CN(C(=O)c2ccccc2)C=C1
49.6 µM: [46]
88.3 µM: [24]
76 µM: [25]
65.2 µM: [2]
37.5 µM: [33]
51.1 µM: [4]
67.5 µM: [45]
29.8 µM: [23]
48.6 µM: [7]
61.5 µM: [43]
80 µM: [52]
64.2 µM: [20]
74.3 µM: [36]
73.6 µM: [1]
90.5 µM: [16]
72.9 µM: [41]
88.9 µM: [51]
78.8 µM: [29]
45.7 µM: [48]
> 100 µM: all other assays above

Ic1ccc2c(c1)N(c1ccccc1)c1cc(N=c3ccc4nc5ccc(I)cc5n(-c5ccccc5)c-4c3)ccc1N2
73.1 µM: [44]
58.2 µM: [48]
16.1 µM: [5]
94 µM: [16]
69 µM: [25]
80.1 µM: [19]
71.5 µM: [33]
not listed: [58]
> 100 µM: all other assays above
